Experimental data as given in patent publication US9884813B1, “Pharmaceutically acceptable salts of B-guanidinopropionic acid with improved properties and uses thereof” (Rgenix, Inc., priority 2017, dated 2018).
Values joined by “and” are separate entries in the source; they are usually repeats but may differ in a detail not shown here. Equal values may be shown once. “Also recorded” adds a separate entry of the source. Each block holds one compound with its values, some of them ahead of it.

How the values were obtained:
[1] = Experiments on lyophilized 2:1 fumarate polymorph (Pattern 7C); type: physicochemical
Method: 1 g of 2:1 β-GPA fumarate was dissolved in 10 mL of water at 50° C. in a round bottom flask. The round bottom flask was placed in the dry ice/acetone cooling bath (−78° C.) until the sample solidified followed by lyophilization for 48 hours. A white solid was obtained which was analyzed by XRPD, DSC and ^1H-NMR. Sample ID: 2162-84-1.
To confirm the above hypothesis the following experiments (Table 25) were performed on the lyophilized sample (Pattern 7C): […]

[2] = Carr's index and Hausner ratio (predicted flowability); type: physicochemical; settings: Table 18, scale of Table 17
Bulk and tapped density = type: physicochemical
Method: The bulk density of β-GPA oxalate (Pattern 18 B), succinate (Pattern 15A), and fumarate (Pattern 7A) were determined by pouring in a known amount of salt (g) into a measuring cylinder. The volume (Vi) occupied by the salt was recorded and the bulk density (ρB) was determined using equation 1. ρB=g/Vi (1)
The tapped densities of the salts were determined using a Tap density analyzer. A known amount of salt was poured (g) into a measuring cylinder and the initial volume was recorded and tapped using a Tap density analyzer. The final volume (Vf) after tapping was recorded and the tapped density (ρT) was calculated by using equation 2. ρT=g/Vf (2)

[3] = Carr's index and Hausner ratio (predicted flowability); type: physicochemical; settings: for Carr's index / Hausner ratio: calculated from bulk and tapped volumes; for Flow character: scale of Table 6 (Carr's index)
Description: The flow properties of β-GPA are sub-optimal. The bulk density is 0.389 g/cc and the tapped density is 0.627 g/cc. These measurements can be used to calculate the Carr's index and Hausner ratio for a substance. The Carr's index and Hausner ratio are indicators of flowability of a powder. As known in the art, e.g., as described in Carr R. L. Chem. Eng. 1965, 72, 163-168, the relationship to flowability of a powder to the Carr's index and Hausner ratio is based on the scale shown in Table 6 below.
Carr's index or Carr's compressibility index (C) is an indication of the compressibility of a powder. It can be calculated using the equation below: Carr's index (C)=100(Vi−Vf)/Vi (3) A Carr's index greater than 25 is considered to be an indication of poor flowability while a value below 15 is an indication of good flowability.
The Hausner ratio is a number that is correlated to the flowability of a powder or granular material. It is calculated by using the equation below: Hausner ratio=Vi/Vf (4)

[4] = Flowability measurement using Hanson Flodex unit; type: physicochemical; settings: for flow character from the experimental data: summary of density and Flodex measurements
Description: Method: A cylindrical vessel is secured to the stand and above that a funnel is also secured such that the bottom of the funnel is close to the vessel. A powder load of ≈50-60 g is then poured through the funnel into the middle of the cylinder. The lever device is pulled to open the hole in the disk quickly and without vibration. If a powder slowly flows through the small-diameter holes, leaving a cavity shaped like an upside-down, truncated cone, the test is considered positive. If a powder flocculates in bulk and falls abruptly, forming a cylindrical cavity, the test is considered negative. […] If the experiment is negative, the powder is tested again with a disk having a larger hole.

[5] = Roller compaction feasibility (slugs, capsule fill)
Method: Roller compaction feasibility was performed by producing slugs using a single station hand press then carefully hand milling those slugs so that all granules were small enough to pass through a size US 18 mesh. These granules were then filled into size 0 capsules by both the free flow and tamp method. A total of N=5 capsules were filled for each lot for each method. The average net fill weight results are given below in […]. The same issue was not seen when compressing the succinate salt form of β-GPA. Slugs produced around 1500 PSI produced slugs hard enough to be tested for hardness. The resulting slug parameters can be seen in Table 33.

[6] = Solid form stability at 40° C. and 75% humidity; type: physicochemical; settings: for solid form stability (XRPD): 40° C. and 75% RH for seven days
Method: Solid form stability studies of β-GPA fumarate, succinate, and oxalate were carried out at 40° C. and 75% RH for seven days. Around 30 mg of the salts were placed in 4 mL vials which were placed in a saturated solution of sodium chloride (2 mL) with lids closed at 40° C. […]

[7] = Solid form stability of salts in different solvents (slurry, XRPD); type: physicochemical; settings: 48 hours, room temperature
Method: Three salts were studied for solid form stability in water (disproportionation test), methanol, acetonitrile, and acetone:water (9:1) for 48 hours at room temperature.

[8] = Compression profile evaluation (tabletability); type: physicochemical
Method: Compression profiling was also performed on both the free base and the salt form of the API. A standard formulation containing plastic diluent, brittle diluent, disintegrant and lubricant was evaluated at a loading of 25% and 50% API. The diluent level was adjusted accordingly, but the ratio of plastic to brittle filler was set a 1:1. It was decided to use a representative tablet formulation to perform compression profiling to mitigate the cohesion and sticking issues seen in the free base and the salt form during the roller compaction feasibility evaluation. Table 37 details the formulation compositions tested.
These blends were then compressed into 100 mg compacts using 0.25-inch flat faced tooling at increasing compaction pressures. A total of N=3 compacts were produced at each compaction pressure and were measured for weight, thickness and hardness. The compression stresses used were calculated by dividing the force applied to the compact by the surface area of the 0.25 in flat faced tooling. The tensile strength of the compacts was calculated using the equations derived for flat faced tablets. For each formulation, a tabletability (tensile strength vs. compression pressure) was generated. For the purposes of this study the tabletability profile was examined to determine the compaction pressure required in order to produce a tablet of acceptable tensile strength. Historically a tablet with a tensile strength of 2.0 Mpa is sufficient to both withstand friability and to not impact disintegration and dissolution.

[9] = Solid form stability of salts in different solvents (slurry, XRPD); type: physicochemical; settings: water, 6 hours, room temperature
[10] = Dynamic vapor sorption (DVS) with XRPD of the post-DVS sample; type: physicochemical; settings: for solid form by XRPD after the DVS experiment: post DVS sample
Method: Samples were analyzed using an Aquadyne DVS-2 gravimetric water sorption analyzer. The relative humidity was adjusted between 2-95% and the weight of the sample was continuously monitored and recorded.
[…]: β-GPA maleate (1:1) Form II, β-GPA fumarate (1:1), β-GPA maleate (2:1), β-GPA succinate (2:1) and β-GPA oxalate (1:1) were analyzed by DVS experiment followed by XRPD analysis of the sample at the end of the experiment.
Sample 2162-64-1 was analyzed by DVS in triplicate and the post DVS samples were characterized by XRPD to identify the form at the end of the experiment.

[11] = Solid form stability under stressed conditions (wet, dry, high humidity) by XRPD; type: physicochemical
Method: The solid form stability of each salt was studied by XRPD under stressed conditions: wet, dry (45° C. under vacuum) and high humidity (RH >95%).

[12] = Dynamic vapor sorption (DVS) with XRPD of the post-DVS sample; type: physicochemical; settings: relative humidity between 0-95 percent
[13] = Average of 5 slugs, average Compression Force 1600.00 PSI (28.67 MPa)
[14] = slug, Compression Force 1500 PSI, Compression Stress 27 MPa, listed as β-Guanidinopropionic Acid Succinate Salt
[15] = slug, Compression Force 2000 PSI, Compression Stress 36 MPa

stability of the polymorph [1]: unstable
Structure (SMILES): N=C(N)NCCC(=O)O.N=C(N)NCCC(=O)O.O=C(O)/C=C/C(=O)O [Pattern 7C]

Flow character [2]: Good (11-15)
Bulk density (Bulk and tapped density): 0.405 g/cc
Tapped density (Bulk and tapped density): 0.472 g/cc
Carr's index [3]: 14.3
Hausner ratio [3]: 1.167
Flow character ([3]; predicted): Good (11-15)
Did solid pass? ([4]; Disc pore size 5 mm): No
Did solid pass? ([4]; Disc pore size 6 mm): No
Did solid pass? ([4]; Disc pore size 7 mm): Yes
Did solid pass? ([4]; Disc pore size 8 mm): Yes
Did solid pass? ([4]; Disc pore size 10 mm): Yes
Did solid pass? ([4]; Disc pore size 18 mm): Yes
Did solid pass? ([4]; Disc pore size 20 mm): Yes
Did solid pass? ([4]; Disc pore size 22 mm): Yes
Did solid pass? ([4]; Disc pore size 24 mm): Yes
flow character from the experimental data [4]: good
Calculated Solid Fraction [5, 13]: 0.80
Tablet Hardness [5, 13]: 4.86 kp
Tensile Strength [5, 13]: 0.34 MPa
Calculated Solid Fraction ([5]; slug, Compression Force 1500 PSI, Compression Stress 27 MPa): 0.79
Tablet Hardness [5, 14]: 5.1 kp and 3.7 kp and 4.4 kp and 4.3 kp
Calculated Solid Fraction [5, 15]: 0.85
Tablet Hardness [5, 15]: 6.8 kp
Tensile Strength [5, 15]: 0.50 MPa
solid form stability (XRPD) ([6]; listed as 2:1 succinate salt): stable
XRPD pattern after slurry ([7]; acetone:water (9:1)): presence of β-GPA
XRPD pattern after slurry ([7]; acetonitrile): retain its original form
XRPD pattern after slurry ([7]; acetonitrile, listed as 2:1 β-GPA succinate): retain its XRPD pattern
XRPD pattern after slurry ([7]; methanol): retain its original form
XRPD pattern after slurry ([7]; methanol, listed as 2:1 β-GPA succinate): retain its XRPD pattern
compaction force required to produce a tablet of 2.0 Mpa tensile strength ([8]; 25% API loading formulation): 22.7 kN
compression stress (compaction pressure) required to produce a tablet of 2.0 Mpa tensile strength ([8]; 25% API loading formulation): 150 Mpa
compaction force required to produce a tablet of 2.0 Mpa tensile strength ([8]; 50% API loading formulation): ~34.8 kN
compression stress (compaction pressure) required to produce a tablet of 2.0 Mpa tensile strength ([8]; 50% API loading formulation): ~230 Mpa
XRPD pattern after slurry [9]: two peaks from β-GPA
XRPD pattern after slurry ([9]; listed as 2:1 β-GPA succinate): started showing up peaks from β-GPA
solid form by XRPD after the DVS experiment [10]: retained their XRPD
solid form by XRPD after the DVS experiment ([10]; listed as 2:1 succinate salt): no form change
solid form by XRPD after the DVS experiment ([10]; listed as 2:1 β-GPA succinate): no form change
Dry_XRPD pattern ([11]; dry (45° C. under vacuum)): Pattern 15A
stability in dry conditions ([11]; dry conditions): stable
Humid_XRPD pattern ([11]; high humidity (RH >95%)): Pattern 15A
stability under high humidity conditions ([11]; high humidity conditions): stable
Wet_XRPD pattern ([11]; wet): Pattern 15A
Structure (SMILES): N=C(N)NCCC(=O)O.N=C(N)NCCC(=O)O.O=C(O)CCC(=O)O [β-GPA succinate (2:1)]
Tensile Strength [5, 14]: 0.35 MPa and 0.25 MPa and 0.30 MPa and 0.29 MPa
solid form stability (XRPD) [6]: retained their original XRPD pattern; also recorded: stable

Flow character [2]: Very very poor (>38)
Bulk density (Bulk and tapped density): 0.389 g/cc
Tapped density (Bulk and tapped density): 0.627 g/cc
Carr's index [3]: 37.9
Hausner ratio [3]: 1.610
Flow character ([3]; predicted): Very poor (32-37)
Flow character by Hausner ratio ([3]; predicted, scale of Table 6 (Hausner ratio)): Very very poor (>1.60)
Did solid pass? ([4]; Disc pore size 18 mm): No
Did solid pass? ([4]; Disc pore size 20 mm): No
Did solid pass? ([4]; Disc pore size 28 mm): No
Did solid pass? ([4]; Disc pore size 30 mm): No
Did solid pass? ([4]; Disc pore size 34 mm): Yes
flow character from the experimental data [4]: poor
calculated solid fraction of slugs ([5]; slugs produced using up to 2000 psi): 74%
moisture absorbed and desorbed [12]: around 0.1%
degradation ([6]; 40° C. at 75% humidity after 4 weeks): No degradation was observed
compression stress (compaction pressure) required to produce a tablet of 2.0 Mpa tensile strength ([8]; 25% API loading formulation): roughly 235 Mpa
water uptake ([10]; 80% humidity at 25° C.): ~0.3%
solid form by XRPD after the DVS experiment [10]: No change in the solid form
Structure (SMILES): N=C(N)NCCC(=O)O [β-GPA, β-Guanidinopropionic acid, reference compound]
compression stress (compaction pressure) required to produce a tablet of 2.0 Mpa tensile strength ([8]; 50% API loading formulation): incapable of reaching a tablet with 2.0 Mpa
